The assay relates to nisin sensitive strain. As to the kind of experiment: agar well (halo) assay for antibacterial activity. The format is cell-based. The note with it: Example 5: trypsin-treated ziptipped material/crude supernatant of E. coli SF120 with NisABTC. As to the method:
The above ZIPTIPPED™ material and the crude supernatant is treated after outer membrane disruption with trypsin. This material is applied to the agar well assay to determine antibacterial activity.
Materials and methods. […] NZ9000+pNG-NisABTC were grown and induced. The supernatant is analyzed as in Example 1. Trypsin treated supernatant was subjected to the agar well assay by pouring the trypsinated supernatant in an agar well and overlaying with a nisin sensitive strain.
The mutation was checked by PCR and sequencing. The above-generated ΔNisP strain was grown overnight in M17 medium (Terzaghi and Sandine, 1975, Appl. Microbiol. 29: 807-813), diluted 100 fold and grown to OD600 equal to 0.4. […] After 1, 2 and 3 hours, more 0.2 mM pmsf, 0.2 mM TPCK are added and followed by overnight incubation. […] Elution and experiments a) and b).

Turning to nisin, the “antimicrobial activity in the agar well assay” value was “antimicrobial activity”.

These data come from patent US6861236B2, “Export and modification of (poly)peptides in the lantibiotic way” (Applied Nanosystems B.V., priority 2002, dated 2005).
